Drawing on a melting point compilation (Tetko et al.; mined from patent text by program, amines drawn as free bases though some values may be those of a salt), this text covers melting point for 85 compounds.

Bounds are passed on as bounds.

In the case of `CC(=O)COc1ccn2nc(-c3ccccc3)c(-c3ccc(=O)n(C(C)C)n3)c2c1`, the melting point was 172 to 174 °C.

In the case of `CC1(C)C(=O)Oc2c(S(C)(=O)=O)cc3cc(S(C)(=O)=O)c(Cn4cncn4)cc3c21`, the melting point fell in the range of 263 to 264 °C.

With `COc1ccccc1Cn1c(=O)c2c(Cl)cc(N3CCNCC3)cc2n(Cc2ccccc2)c1=O`, the melting point fell in the range of 83 to 87 °C.

Take `CC(=O)Nc1ccc(OC(=O)C(CSSCC(NC(C)=O)C(=O)O)NC(C)=O)cc1` (stereo not given): the melting point lay within 95 to 99 °C.

In turn, `CC(C)Cn1c(CNC(=O)OC(C)(C)C)c(-c2cccs2)c2cc(C(N)=O)ccc2c1=O` registered a melting point of 248 to 250 °C.

Regarding `CCCCCCCCCCCCc1ccc(S(=O)(=O)Cl)cc1`, the melting point is 33 to 35 °C.

In turn, `O=C(Nc1ccc(C(=O)c2ccccc2)cc1)c1ccc(-c2ccccc2)cc1` had a melting point of 212 to 213 °C.

On to `COc1cc(OC)c(-c2cc3ccccc3n2C)cc1C=CC(=O)c1ccc(S(=O)(=O)N(C)C)cc1`, for which the melting point was in the range of 120 to 122 °C.

Regarding `N#Cc1cc(C(F)(F)F)cc(Cl)c1F`, the melting point was in the range of 150 to 152 °C.

`COCCCn1nnnc1-c1cc(-c2ccc(C(F)(F)F)cc2)c(O)cc1O` had a melting point of 98 to 104 °C.

Turning to `C=CC(=O)C(CC1CCOCC1)c1ccc(S(=O)(=O)C2CC2)cc1` (stereo not given), the melting point is 92 to 93 °C.

On to `CCCNC(=NC#N)Nc1cccnc1`, for which the melting point fell in the range of 164 to 165 °C.

In turn, `CCCc1ccc(C=O)n1Cc1ccc(-c2ccccc2-c2nnn[nH]2)cc1` registered a melting point of 68 to 71 °C.

The compound `CCOC(=O)c1[nH]c2ccccc2c1-c1ccc([N+](=O)[O-])cc1` had a melting point of 218 to 220 °C.

With `CCN(CC)CCNC(=O)c1cc(Cl)c(N)cc1OCC(=O)C(C)C`, the melting point lay within 109 to 110 °C.

In turn, `Cc1csc(CN(C)C(=O)C23CC4CC(CC(C4)C2)C3)c1` yielded a melting point of 87 to 88 °C.

`COc1ccc(OC)c(CCc2ccc3c(c2)C(=O)NCN3)c1` returned a melting point of 138 to 140 °C.

`Cc1ccc2c(c1)N(CC(=O)c1ccccc1C)C(=O)C(NC(=O)Nc1ccc(C)c(C(=O)O)c1)CN2C(=O)c1cccs1` (stereo not given) yielded a melting point of 192 to 195 °C.

For the compound `COc1c([N+](=O)[O-])cc(C)c(C)c1[N+](=O)[O-]`, the melting point was in the range of 67.3 to 67.6 °C.

`O=c1[nH]c2cc3cc(N4CCCC4)ccc3nc2[nH]1` gave a melting point greater than 300 °C.

`Cc1ccc(-c2nnc(N3CCC(CO)CC3)nc2-c2ccc(C)cc2)cc1` had a melting point of 152 to 154 °C.

In turn, `CCCCC1(O)c2cc(NC(=O)CC(C)(C)C)c(C)c(C)c2OC1(C)C` (stereo not given) registered a melting point of 161 to 162 °C.

Take `Nc1ccc(S(=O)(=O)Nc2ccc(C(O)(C(F)(F)F)C(F)(F)F)cc2)cc1`: the melting point lay in the range of 160 to 161 °C.

For the compound `CC(c1oc2ccccc2c(=O)c1-c1cccc(F)c1)n1ccc2c(Cl)ncnc21` (stereo not given), the melting point lay within 71 to 75 °C.

Consider `CCCCC(=O)Nc1ccc(C(F)(F)F)c(-n2nc(CCCC)n(Cc3ccc(-c4ccccc4S(=O)(=O)NC(=O)c4ccccc4Cl)cc3F)c2=O)c1`, for which the melting point lay within 145 to 147 °C.

The compound `COc1ccc2c(c1)c(SC(C)(C)C)c(CC(C)(C)C(=O)O)n2Cc1ccc(Cl)cc1` registered a melting point of 190 to 191 °C.

With `CCOC(=O)C1=C(C)NC(c2nccn2C)=NC1c1ccc(F)cc1` (stereo not given), the melting point fell in the range of 134 to 136 °C.

With `CCc1n[nH]c2cc(-c3ccc4nnn(Cc5ccc6ncccc6c5)c4n3)ccc12`, the melting point lay within 211 to 213 °C.

The compound `COc1ccc(-c2ccc(Cl)cc2)c(COc2ccc(-c3nc4cc(C(=O)O)ccc4n3C3CCCCC3)cc2)c1` displayed a melting point of 248 to 249 °C.

For the compound `O=S1(=O)N=C(O)C(c2ccccc2)=N1`, the melting point fell in the range of 202 to 204 °C.

`Cc1cccc(C)c1NC(=O)c1ccc(N)cc1`: the melting point lay in the range of 212 to 215 °C.

`C=CCNc1nc(NC(C)(C)C)nc2ccc([N+](=O)[O-])cc12` registered a melting point of 139 to 140 °C.

Turning to `CC(C)(O)COC(=O)N1CCN(C#N)CC1`, the melting point lay in the range of 90 to 92 °C.

In the case of `CCCCCCN(C)c1ccc(C=C2SC(=S)N(CC(=O)NS(C)(=O)=O)C2=O)cc1`, the melting point lay in the range of 227 to 230 °C.

Consider `CN1C(=O)N(c2ccc([N+](=O)[O-])c(C(F)(F)F)c2)C(=O)C1(C)C`, for which the melting point is 116 °C.

In the case of `COc1ccc(C2(C)C(=O)Nc3cc(OC)cc(Cl)c3C2=O)cc1` (stereo not given), the melting point fell in the range of 222 to 224 °C.

Compound `COc1ccc(-c2ccc(-c3cc(NC(Cc4ccccc4)C(=O)O)ncn3)cc2)cc1` (stereo not given) displayed a melting point of 123 to 125 °C.

In turn, `Cc1nc(-c2cc(C)c(OCCCc3cnc4ccccc4c3)c(C)c2)no1` returned a melting point of 105 to 107 °C.

As to `FC(F)(F)C(Cc1ccccc1)c1ccccc1` (stereo not given), the melting point is 58 to 61 °C.

As to `Cc1ccc(N2CCCN(c3cc[nH]c(=S)c3C#N)CC2)cc1[N+](=O)[O-]`, the melting point lay within 277 to 278 °C.

In turn, `Cc1cc2n(c(=O)n1)C(C)N=C2` (stereo not given) displayed a melting point of 231 to 232 °C.

On to `O=C(Nc1ccc2c(c1)NCCC2)c1cc2cc(C(F)(F)F)ccc2n1Cc1cccc(F)c1`, for which the melting point was in the range of 203 to 204 °C.

For the compound `CC(=O)c1cn(C)cc(-c2cccc(C(F)(F)F)c2)c1=O`, the melting point lay within 130 to 131 °C.

As to `COC(=O)c1cc(N2CCCC2)c(Oc2ccccc2)c(S(=O)(=O)Cl)c1`, the melting point is 108 to 112 °C.

In turn, `COc1ccccc1NC(=O)N1CCc2cc(S(=O)(=O)N3CC(c4ccccc4)NC3=O)ccc21` (stereo not given) registered a melting point of 202 to 204 °C.

The compound `COc1cc(COc2nn(-c3ccccc3)cc2CC#N)ccc1OCc1nc(-c2ccccc2)oc1C` registered a melting point of 137 to 138 °C.

Take `N#Cc1cc2c(c(N3CCN(CCCCN4C(=O)c5ccccc5S4(=O)=O)CC3)c1)OCCO2`: the melting point fell in the range of 162 to 164 °C.

Regarding `Cc1ccc(CC(CNC(=O)C(C)c2ccc(NS(C)(=O)=O)cc2)COC(=O)C(C)(C)C)cc1C` (stereo not given), the melting point fell in the range of 112 to 115 °C.

Compound `CSc1ncc2cc(Oc3ccc(F)cc3F)c(NC(=O)NC(C)(C)C)nc2n1` yielded a melting point of 195 to 201 °C.

As to `CC(C)N1CCN(CCN2CCC(c3noc4cc(F)ccc34)CC2)C1=O`, the melting point was 121 to 123 °C.

Compound `O=Cc1ccc2c(n1)COC(c1ccccc1)O2` (stereo not given) yielded a melting point of 110 to 114 °C.

As to `CS(=O)(=O)OC[C@@H](O)COc1ccc(C#N)cc1`, the melting point fell in the range of 119 to 121 °C.

`O=C(O)COc1ccc(-c2cc(O)c(Sc3ccccc3)c(=O)o2)cc1` came in with a melting point of 186 to 188 °C.

Regarding `Cc1cc(NS(=O)(=O)c2cccs2)c2[nH]c(C3=NCCS3)cc2c1`, the melting point was in the range of 202 to 203 °C.

`CC(C)(C)OC(=O)Nc1cc2cc(OCc3ccccc3)ccc2cc1OCc1ccccc1` showed a melting point of 179 to 182 °C.

As to `CC1CCC(C(C)C)C(c2ccc3c(c2)C(c2ccccc2)(C(F)(F)F)c2cc(C4CC(C)CCC4C(C)C)ccc2O3)C1` (stereo not given), the melting point was in the range of 150 to 151 °C.

Consider `CCCCCCCC(=O)NCc1cccc(-c2ccc(C=CC(=O)O)cc2)c1`, for which the melting point stood at 176 °C.

In the case of `COc1cc(OCc2ccccn2)ccc1/C=C/c1cc(/C=C/c2ccccc2)[nH]n1`, the melting point fell in the range of 143 to 146 °C.

`CC(C)C[C@@H](CO)NC(=O)[C@H](Cc1c[nH]cn1)NC(=O)C(CNCCCc1ccccc1)Cc1cccc2ccccc12` (stereo not given in full): the melting point lay in the range of 72 to 76 °C.

With `Cc1ccc2c(c1)C=Cc1sc(C)nc1C2c1cn(CCN2CCCC2)c(=O)[nH]c1=S` (stereo not given), the melting point was determined as 198 °C.

The compound `O=C1C(=O)c2ccccc2C2=C1SCC1(CCN(C(=O)c3cc4ccccc4s3)CC1)O2` returned a melting point of 110 to 112 °C.

`O=C(C1CC1)N1CCCCc2cc(C(O)(C(F)(F)F)C(F)(F)F)ccc21`: the melting point lay within 165 to 167 °C.

The compound `Cc1cc(C)c(C(=O)COc2ccc(C(=O)C(=O)O)cc2)c(C)c1` showed a melting point of 144 to 145 °C.

The compound `CCOC(=O)C1=C(C(Br)Br)Nc2ncnn2C1C` (stereo not given) gave a melting point of 170 to 171 °C.

`Cn1ccnc1SCC(O)(Cn1cncn1)c1ccc(Cl)cc1Cl` (stereo not given) yielded a melting point of 159 to 161 °C.

For the compound `COC1C=C(C)C(=O)CC(C)(C)C1OC(=O)c1ccc(N)cc1N` (stereo not given), the melting point lay in the range of 178 to 179 °C.

In turn, `CCCCCC(CCCCC)=NN=C1NC(=O)C(CC(=O)O)S1` (stereo not given) registered a melting point of 134 to 135 °C.

Compound `CCCc1nc(C(C)=O)c(C#N)[nH]1` yielded a melting point of 93 to 95 °C.

As to `Cc1nc(-c2cc(Cl)ccc2Cl)n2c1nnc1ccc(F)cc12`, the melting point lay within 165 to 168 °C.

Take `O=C(O)CSCCCCOc1ccccc1`: the melting point was 48 to 50 °C.

The compound `Cc1oc(-c2cc3ccccc3o2)nc1COc1ccc(CCCC2OC(=O)NC2=O)cc1` (stereo not given) displayed a melting point of 165 to 166 °C.

Compound `CC12CCC3c4ccc(C(=O)O)cc4CCC3C1CCC2C(=O)CCC1CCCCC1` (stereo not given) showed a melting point of 250 to 253 °C.

Turning to `CCOc1ccccc1O[C@@H]1CN(CC)C[C@H]1O` (relative stereo), the melting point lay within 73 to 75 °C.

In the case of `CN(C)CCSc1cc(NC(=O)OC(C)(C)C)c(N)cc1C#Cc1ccccc1`, the melting point is 115 to 117 °C.

The compound `CC(=O)Oc1ccc(-n2c(-c3ccccc3)cc3ccccc32)cc1C(=O)O` displayed a melting point of 178 to 180 °C.

For the compound `COC1N=C(c2ccccc2Cl)c2cc(Cl)ccc2-c2cn(C)cc21` (stereo not given), the melting point was 128 to 130 °C.

With `NC(=O)CCCCCCn1cccc1`, the melting point lay in the range of 228 to 233 °C.

`CCCNC(=O)C1(CCCCCSc2nc3ccc(OCC)cc3s2)c2ccccc2-c2ccccc21` came in with a melting point of 54 to 56 °C.

`CCN1CCN(c2ccnc3sc(C(N)=O)c(N)c23)CC1` gave a melting point of 218 to 219 °C.

For the compound `CN(C)c1ccc2nc(N)c(C#N)c(N=Cc3ccccc3)c2c1`, the melting point came out at 265 °C.

The compound `C=CC(=O)N1CCC(C(=O)O)CC1` returned a melting point of 109 to 110 °C.

For the compound `O=[N+]([O-])c1ccc(Oc2ccc(CBr)cc2)cc1`, the melting point was 68 to 70 °C.

Take `COC(=O)C=CC=CCSc1ccc(Cl)cc1`: the melting point lay within 75 to 77 °C.

Turning to `COC(=O)[C@H](Cc1ccccc1)NC(=O)[C@H](Cc1ccccc1)NC(=O)[C@H](CC(N)=O)NC(=O)OC(C)(C)C`, the melting point is 192 to 194 °C.

The compound `NS(=O)(=O)c1cc(C2CO2)ccc1F` (stereo not given) showed a melting point of 100 to 103 °C.
